# Experimental data from ChEMBL document CHEMBL2385078, “The systematic structure-activity relationship to predict how flavones bind to human androgen receptor for their antagonistic activity” (Bioorg Med Chem, 2013).
# Active and inactive are the calls of the source. The rule behind the calls is not given here.
# Key:
# Androgen receptor = biological target: T1, Androgen receptor (Homo sapiens, UniProt P10275); test: Antagonist activity at human androgen receptor LBD expressed in human MDA-kb2 cells by luciferase reporter gene assay; assay type: cell-based
# T1 sequence (P10275 whole entry): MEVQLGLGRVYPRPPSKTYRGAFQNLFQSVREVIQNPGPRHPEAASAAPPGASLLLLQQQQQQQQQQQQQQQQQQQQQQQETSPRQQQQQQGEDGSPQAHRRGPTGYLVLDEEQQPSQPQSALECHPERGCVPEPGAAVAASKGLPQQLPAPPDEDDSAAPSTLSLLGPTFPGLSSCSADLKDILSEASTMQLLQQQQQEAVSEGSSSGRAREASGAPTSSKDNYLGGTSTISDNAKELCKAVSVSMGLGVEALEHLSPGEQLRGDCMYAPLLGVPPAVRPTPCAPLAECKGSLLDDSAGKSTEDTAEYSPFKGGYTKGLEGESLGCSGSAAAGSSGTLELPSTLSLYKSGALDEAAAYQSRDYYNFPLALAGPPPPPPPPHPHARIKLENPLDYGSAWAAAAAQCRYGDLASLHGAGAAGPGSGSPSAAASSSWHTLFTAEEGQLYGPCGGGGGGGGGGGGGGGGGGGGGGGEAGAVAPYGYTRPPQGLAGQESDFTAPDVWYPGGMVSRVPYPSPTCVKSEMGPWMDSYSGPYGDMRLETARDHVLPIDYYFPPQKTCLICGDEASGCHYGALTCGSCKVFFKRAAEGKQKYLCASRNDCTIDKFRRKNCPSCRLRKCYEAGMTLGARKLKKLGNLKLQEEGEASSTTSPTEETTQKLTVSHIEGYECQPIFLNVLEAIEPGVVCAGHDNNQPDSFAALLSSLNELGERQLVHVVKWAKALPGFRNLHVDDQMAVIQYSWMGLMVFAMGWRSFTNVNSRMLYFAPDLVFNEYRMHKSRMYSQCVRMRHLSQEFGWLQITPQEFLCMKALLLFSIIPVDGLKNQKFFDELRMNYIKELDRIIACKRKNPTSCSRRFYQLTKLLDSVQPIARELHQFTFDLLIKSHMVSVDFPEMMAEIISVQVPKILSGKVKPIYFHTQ
# [1] = biological target: T2, Androgen receptor (Homo sapiens) (UniProt P10275); test: Competitive reversible inhibition of human androgen receptor LBD expressed in human […] cells at IC10 to IC70 in presence of […]; assay type: cell-based
# T2 sequence (whole entry): T1 sequence (P10275 whole entry)
SMILES,IC50 (Androgen receptor; read-out: IC50) [nM],IC50 (Androgen receptor; read-out: pIC50 (converted)) [nM],inhibition [1]
O=c1cc(-c2ccc(O)cc2)oc2cccc(O)c12,860,851,
O=c1cc(-c2ccc(Cl)cc2)oc2cccc(O)c12,460,457,
COc1cccc2oc(-c3ccc(F)cc3)cc(=O)c12,1610,1620,
CN(C)c1ccc(-c2cc(=O)c3c(O)cccc3o2)cc1,850,851,
Nc1ccc(-c2cc(=O)c3c(O)cccc3o2)cc1,1990,2000,
N#Cc1ccc(-c2cc(=O)c3c(O)cccc3o2)cc1,250,251,
O=c1cc(-c2ccc([N+](=O)[O-])cc2)oc2cccc(O)c12,360,363,
Cc1ccc(-c2cc(=O)c3c(O)cccc3o2)cc1,11100,11200,
NC(=O)c1ccc(-c2cc(=O)c3c(O)cccc3o2)cc1,3580,3550,
CSc1ccc(-c2cc(=O)c3c(O)cccc3o2)cc1,1070,1070,
O=c1cc(-c2ccc(C(F)(F)F)cc2)oc2cccc(O)c12,1240,1230,

# Next, values leading:
IC50 (Androgen receptor; read-out: IC50) [nM],IC50 (Androgen receptor; read-out: pIC50 (converted)) [nM],inhibition [1],SMILES
360,363,,O=c1cc(-c2ccc(Cl)cc2)oc2cccc(F)c12
1200,1200,,N#Cc1ccc(-c2cc(=O)c3c(F)cccc3o2)cc1
770,776,,O=c1cc(-c2ccccc2)oc2cccc(F)c12
330,331,,O=c1cc(-c2ccc(F)cc2)oc2cccc(O)c12
190,191,Active,O=c1cc(-c2ccc(F)cc2)oc2cccc(F)c12
